Source: patent EP3150574B1, “AMANTADINE NITRATE COMPOUND HAVING A NEUROPROTECTIVE EFFECT AND PREPARATION AND MEDICAL USE THEREOF” (Guangzhou Magpie Pharmaceuticals Co., Ltd., priority 2014, dated 2015)
pEC50: −log10 of the molar value.

System: primary cerebellum granule cells of rats
Test: Protective effects of compounds on primary cerebellum granule cells against glutamate-induced excitotoxic injury (MTT cell viability)
Assay type: cell-based
Settings: protective effect on rat's nerve cells, pre-protection 2 h, then for 24 h, absorbance at 570 nm
Experimental: Isolated primary cerebellum granule cells of infant rats were inoculated in 96-well plates with 1.2×10^5/well by using 10% FBS + 25 mM KCl + 2 mM Glutamine + 1% of double-antibody BME medium. After 24 hours, cytarabine with a final concentration of 10 iM was added to inhibit the proliferation of neurogliocyte cells. After the day 4, glucose with the final concentration of 5 mM was added every four days to complement energy metabolism and water evaporation of cells. The materials were placed in a cell incubator (37 °C, 5% CO2) to be cultured for 10 days. […] After pre-protection for 2 h, 200 iM of glutamate was added to induce cell damage for 24h, and then MTT was added to culture for 4 h. The supernatant fraction was sucked, and 150 iL of DMSO was added to each well for dissolving. After blending with shaking, the light absorption values under 570 nm wavelength was measured with a microplate reader, and the viability of cells was calculated. Cell viability (%) = absorbance of different groups / absorbance of the normal control group × 100%.

`CCC12CC3CC(N)(C1)CC(CO[N+](=O)[O-])(C3)C2` (stereo not shown) [NM-004] and `CCC12CC3CC(N)(C1)CC(CCCO[N+](=O)[O-])(C3)C2` (stereo not shown) [NM-005] are within 0.2 log units of each other in pEC50: 5.09 for the first, 5.22 for the second.

First: NC12CC3CC(CCO[N+](=O)[O-])(C1)CC(CCO[N+](=O)[O-])(C3)C2 [NM-009]
Second: CC(CO[N+](=O)[O-])CC12CC3CC(N)(C1)CC(CC(C)CO[N+](=O)[O-])(C3)C2 (stereo not shown) [NM-012]
The pEC50 of the first is 0.25 log units higher: 5.28 for the first, 5.03 for the second.
